For series [1], the system named is Chung rat model of chronic pain. Put plainly: Chung rat model of chronic pain (allodynia reversal). In kind it is in vivo. Conditions: for PAIN REVERSAL: rats. As for the experimental part:
Gabapentin was administered intraperitoneally to rats at a minimally effective dose; that is, the compound was administered at a dose that, when administered alone, is the minimum dose required to relieve pain (this dose was calculated by finding, first, the dose that produced drug's maximum effect—that is, the dose that fully alleviated pain—and dividing that dose by three; the result is a dose that is slightly less than 50% of the dose that is required to produce the drug's maximum effect). The rats then immediately received one of two alpha-2B receptor agonists, Compound No. 95 and Compound No. 27, or received no additional compound, at all. […] Pain reversal was then assessed using the Chung rat model of chronic pain. The model is described by Kim and Chung, Pain, […], at 355-363 (1992) and in U.S. Pat. No. 7,091,232, both of which are incorporated by reference herein.
The right-hand column in Table 5 provides the P values showing statistical significance comparing the effect of the alpha-2B receptor agonist+Gabapentin to the effect of Gabapentin alone. The significance was determined using a 2-sided unpaired Student t test.
(§1) A minimal effect is typically <50% reversal of allodynia. Optimal effects are typically >80% reversal of allodynia. Gabapentin by itself is not fully effective so its peak effect is about 62% reversal of allodynia. An ineffective intraperitoneal (IP) Gabapentin dose is 3 mg/kg. A minimally effective dose is 10 mg/kg and its peak effect is achieved with 30 mg/kg. […] Locomotor activity is determined automatically by placing the rat in a digicom analyzer chamber (Omnitech Electronic). These chambers have photocells criss-crossing the box that are broken as the animal moves around. The computer analyses this movement and records total activity over 5-minute time periods.

The test system is the same in series [2]. The series is described as above. Conditions: for pain relief when administered alone at the dose used in the combination: intraperitoneally, doses of Table 4 (No. 95 1 μg/kg, No. 27 10 μg/kg); for PAIN REVERSAL: Compound No. 27 10 μg/kg given immediately after Gabapentin 10 mg/kg, rats. In kind it is in vivo.
A further series has as its system locomotor activity. Put plainly: Locomotor / exploratory activity in a novel chamber (digicom analyzer). The format is in vivo, rat. On the procedure: as §1
The mark [3] stands for this setting: IP 1 ug/kg + Gabapentin 10 mg/kg.

Consider 4 compounds from US20120083508A1, “ALPHA-2B RECEPTOR AGONIST AND ANTICONVULSANT COMPOSITIONS FOR TREATING CHRONIC PAIN” (ALLERGAN, INC., priority 2006, published 2012).

As for `C[C@@H](c1c[nH]c(=S)[nH]1)c1cccc2ncccc12` [Compound 95], the “PAIN REVERSAL” value in series [1] (Compound No. 95 1 μg/kg given immediately after Gabapentin 10 mg/kg) was 75%. The “% Allodynia Reversal (30 min peak)” value turned out to be 75.46 ± 5.3% in series [2] (setting [3]); 1.52 ± 1.0% in series [2] (PO, 1 ug/kg, alone); 58.21 ± 5.3% in series [2] (PO, 3 ug/kg, alone); 78.43 ± 4.6% in series [2] (PO, 10 ug/kg, alone); 81.53 ± 6.2% in series [2] (PO, 30 ug/kg, alone); 81.26 ± 8.8% in series [2] (PO, 100 ug/kg, alone). In addition, in series [2] (alone), the “pain relief when administered alone at the dose used in the combination” value was “not effective in relieving pain”.

On to `C1=NC(CC2CCc3ccccc3C2)CN1` (stereo not drawn) [Compound 27], for which the “PAIN REVERSAL” value in series [2] and in series [2] (listed as Compound No. 27) was 78% in each case. For the same compound, the “% Allodynia Reversal (30 min peak)” value in series [2] (IP 10 ug/kg + Gabapentin 10 mg/kg) worked out at 77.50 ± 4.7%; in series [2] (IP, 10 ug/kg, alone), 43.75 ± 7.4%; in series [2] (IP, 30 ug/kg, alone), 74.59 ± 7.4%; in series [2] (IP, 100 ug/kg, alone), 90.86 ± 5.9%. The “pain relief when administered alone at the dose used in the combination” value in series [2] (alone) is “not effective in relieving pain”.

With `OCCNC(=S)NCc1cccc(Cl)c1F` [Compound 131], the “% Allodynia Reversal (30 min peak)” value in series [1] (setting [3]) is recorded as 88.00 ± 5.4%; in series [2] (IP, 1 ug/kg, alone) it was 3.92 ± 1.8%; in series [2] (IP, 3 ug/kg, alone), 54.67 ± 6.1%; in series [2] (IP, 10 ug/kg, alone), 85.24 ± 6.0%; in series [2] (IP, 30 ug/kg, alone) it was 90.04 ± 6.1%; in series [2] (IP, 100 ug/kg, alone) it was 95.31 ± 4.7%. In addition, the “% Allodynia Reversal (30 min peak)” value in series [2] (IP, 300 ug/kg, alone) amounted to 91.7 ± 5.3%.

Take `NCC1(CC(=O)O)CCCCC1` [Gabapentin]: the “PAIN REVERSAL” value in series [1] (Gabapentin 10 mg/kg intraperitoneally, alone) is 45%; in series [1] (Gabapentin 10 mg/kg intraperitoneally, alone, listed as gabapentin), 45%. Further, the “% Allodynia Reversal (30 min peak)” value in series [1] (IP, 10 mg/kg, alone) stood at 40.8 ± 9.3%; in series [1] (IP, 30 mg/kg, alone) it was 61.56 ± 5.7%; in series [2] (IP, 1 mg/kg, alone) it was 5.89 ± 1.3%. Also, in series [2] (Gabapentin by itself, IP, peak effect achieved with 30 mg/kg), the “peak effect, reversal of allodynia” value is “about 62%”. The “dose at which peak effect is achieved” value in series [2] (IP, alone) is recorded as 30 mg/kg. Moreover, in series [2] (IP, alone), the “ineffective intraperitoneal (IP) dose” value worked out at 3 mg/kg. Moreover, in series [2] (IP, alone, minimal effect is <50% reversal of allodynia), the minimally effective dose is reported as 10 mg/kg. Also, the “sedative effects (locomotor activity)” value in the series on locomotor activity (100 mg/kg) is given as “significantly reduced locomotor activity”. Further, in the series with locomotor activity (100 mg/kg intraperitoneally 15 minutes before novel chamber, between 40-60 minutes after dosing), the “reduction in exploratory activity compared to vehicle treated rats” value is above 50%.
